Assay results: article PMC8154177 (Circulation, 2021)
Read-outs that look alike come from different tables or passages of the source.

Columns and labels:
human Nav1.5 (WT) [1] = target: T1, human Nav1.5 (WT) (Homo sapiens, UniProt Q14524); settings: for Effect on peak-INa: over a range of concentrations
human Nav1.5 (WT) [2] = target: T1, human Nav1.5 (WT); test: cell-based
NLRP3 inflammasome = test: Immunoblot of NLRP3 and TXNIP in isolated mouse hearts after ischemia-reperfusion (Langendorff)
human Nav1.5 R1623Q = target: T2, human Nav1.5 R1623Q (Homo sapiens, UniProt Q14524, R1623Q); test: Whole-cell patch-clamp of recombinant Nav1.5 LQT3 R1623Q mutant; assay type: cell-based; settings: 10 µmol/L
T2 construct: expressed in transfected cells; host or cells: HEK293T
Procedure: (§1) The human Nav1.5 gene (SCN5A) in the pcDNA3.1(+)/C-(K)DYK vector (GenScript, Cat No. OHu18270D, USA) was cotransfected with a GFP vector into HEK293T cells using Lipofectamine 3000 (Invitrogen, Cat No. L3000001, USA). Transfected cells were seated on coverslips and used for functional studies within 48 to 72 hours. […] PCR products were cloned into XL-10 Gold Ultracompetent cells (Agilent, Cat No. 200315, USA), and DNA was isolated and purified by GeneElute Plasmid Miniprep kits (Sigma, Cat No. PLN350, USA). The presence of the desired mutations and the integrity of plasmids were then verified by DNA sequencing (The Applied Genomics Core, University of Alberta). The R1623Q LQT3 mutation in human Nav1.5 was constructed as described previously.[42]
(§2) Pipettes were pulled from borosilicate glass (World Precision Instruments, Sarasota, FL) using a P-87 micropipette puller (Sutter Instruments, Novato, CA), and the tips were fire-polished, yielding resistances of 3 to 4 MΩ. The pipette solution contained (in mmol/L) 130 CsCl, 5 NaCl, 5 TEA (tetra-ethyl ammonium chloride)-Cl, 2.5 HEPES, 1 EGTA, and 2 MgATP. The pH was adjusted to 7.2 with CsOH. The extracellular solution contained (in mmol/L) 140 NaCl, 10 HEPES, 1 CaCl2, 1.4 MgCl2, 5 KCl, and 5 glucose (pH adjusted to 7.4 with NaOH).

human Nav1.5 ΔKPQ = target: T3, human Nav1.5 ΔKPQ (Homo sapiens, UniProt Q14524, DEL1505-1507); test: Whole-cell patch-clamp of recombinant Nav1.5 LQT3 ΔKPQ mutant; assay type: cell-based; settings: 10 µmol/L
T3 construct: host or cells: HEK293T
Procedure: as §1, §2

[3] = test system: cardiac sodium current (peak, total, late-INa) in TAC cardiomyocytes; test: Whole-cell patch-clamp of sodium currents in cardiomyocytes from TAC (heart failure) mice; assay type: cell-based, mouse; settings: 10 µmol/L
Procedure: (§3) Male C57BL/6 N mice (7 weeks of age) were obtained from Charles River Canada (St. Foy, Quebec) and housed in a temperature and humidity-controlled animal facility with a 12:12-hour light-dark cycle for a minimum of 1 week before investigation. Animals were maintained on Rodent Chow #5001 and water ad libitum. Eight-week-old mice weighing 20 to 25 g were anesthetized with a cocktail of ketamine (100 mg/kg) and xylazine (20 mg/kg) intraperitoneal and preoperative analgesia (meloxicam, 1–2 mg/kg subcutaneous). Once animals reached a surgical plane, endotracheal intubation was performed using 22-G tubing. The endotracheal tube was then connected to a ventilator (Hugo-Sachs Electronik Mini-Vent, Harvard Apparatus Canada) and ventilated at 200 to 250 µl stroke volume and 150 breaths/min. Animals were then prepared for surgery (Liquid Tears applied to eyes; chest and throat shaved and washed and topical antiseptic utilized, then draped). A vertical skin incision was made from the suprasternal notch to midsternum, and then straight blunt scissors were used to cut the sternum to the third or fourth rib. Mini-Goldstein (FST) spreaders were used to retract the ribs. The thymus was blunt-dissected and the aortic arch visualized. The transverse arch was carefully dissected free of connective tissue, and a 6/0 silk tie was passed around the arch between the innominate and left carotid arteries. A double-blunted 27-G (0.4-mm) needle was then placed alongside the arch and the tie ligated. The blunted needle was then removed to standardize the stenosis. The thymus was gently replaced, and retractors removed. Two sutures were placed in the sternum, and the skin incision was closed using 6/0 Vicryl suture continuous pattern. Sham-operated animals underwent the same procedure without banding. Animals were removed from the ventilator and left to recover in a prewarmed cage with no bedding until the “righting reflex” was achieved, and checked initially every 5 to 10 minutes for the first 60 minutes, then regularly at 20 to 30 minutes intervals for the next 2 to 3 hours. […]

mouse cardiomyocytes = test: Calcium transients (Fluo-4) in paced single mouse cardiac myocytes, veratridine-induced spontaneous events; assay type: cell-based
Procedure: Cardiomyocytes were isolated from 3- to 6-month-old male C57Bl6N mice as described above and then loaded with 1 µmol/L Fluo-4 AM for 30 to 60 minutes at room temperature before imaging with an Olympus IX83 inverted microscope. The cells were perfused with a gravity controlled, multi-channel superfusion system at a flow rate of 1.5 mL/min. Fluorescence was recorded at 20 Hz through a UPLSAPO 20X objective and an Andor iXon Ultra 897 camera after excitation at 480 nm for 9.85 ms at 5% intensity of the X-cite 120 LED Boost Excelitas light source. Cardiomyocytes were field-stimulated at 1 Hz at a current value 10% above the threshold current required to elicit contraction using a current stimulator (Warner Instruments, SIU-102) equipped with platinum electrodes submerged in the recording bath. Cardiomyocytes were selected on the basis of their typical rod-shaped morphology, the absence of unpaced calcium events, and their consistent response to field stimulation. […] Regions of interest were selected such that the cardiomyocyte resided within the boundaries of the regions of interest in both its contracted and its relaxed state. The average fluorescence intensity for the regions of interest in every frame was then analyzed. Fifty-second segments of the fluorescence intensity trace in control and treated conditions from the same cardiomyocyte were obtained. Typically, these segments were the last 50 s during the >120 s superfusion of the chosen treatment condition.

isolated mouse hearts = test: Postischemic functional recovery (LVDP) of isolated Langendorff-perfused mouse hearts
human NCX1.1 = target: T4, human NCX1.1 (Homo sapiens, UniProt P32418); test: Whole-cell patch-clamp of reverse-mode NCX1.1 current in HEK293T cells; assay type: cell-based; settings: 1 µmol/L
T4 construct: expressed in transfected cells; host or cells: HEK293T
Excerpt: as §2

[4] = test system: cardiac sodium current (peak, total, late-INa) in sham cardiomyocytes; test: Whole-cell patch-clamp of sodium currents in cardiomyocytes from sham-operated mice; assay type: cell-based, mouse; settings: 10 µmol/L
Procedure: as §3

[5] = 1 µmol/L, 30 min ischemia, 40 min reperfusion

Molecule: CCOc1ccc(Cc2cc([C@@H]3O[C@H](CO)[C@@H](O)[C@H](O)[C@H]3O)ccc2Cl)cc1 [dapagliflozin]
- Effect on peak-INa (human Nav1.5 (WT) [1]): little inhibitory effect
- IC50 (human Nav1.5 (WT) [2]): 580 nM

Molecule: OC[C@H]1O[C@@H](c2ccc(Cl)c(Cc3ccc(O[C@H]4CCOC4)cc3)c2)[C@H](O)[C@@H](O)[C@@H]1O [empagliflozin]
- Activation of TXNIP after ischemia-reperfusion (NLRP3 inflammasome; [5]): complete prevention
- Activation of the NLRP3 inflammasome after ischemia-reperfusion (NLRP3 inflammasome; [5]): complete prevention
- Effect on late component of R1623Q current (human Nav1.5 R1623Q): significantly reduced
- Effect on peak component of R1623Q current (human Nav1.5 R1623Q): significantly reduced
- Activation V50 after drug (human Nav1.5 R1623Q; R1623Q currents): –43.3 mV
- Inactivation V50 after drug (human Nav1.5 R1623Q; R1623Q currents): –97.5 mV
- Effect on peak current of ΔKPQ (human Nav1.5 ΔKPQ; data not shown): did not inhibit
- Steady-state late-INa after drug (human Nav1.5 ΔKPQ; ≈2% before drug): ≈ 1 % of peak current amplitude
- Effect on late-INa [3]: significantly reduced
- Effect on peak current [3]: did not affect
- Effect on total current (area under the curve) [3]: significantly reduced
- Frequency dependence of peak- and late-INa inhibition (human Nav1.5 (WT) [1]; 1 µmol/L, stimulation frequencies 0.2–3 Hz): no significant differences
- Effect on H2O2-induced late-INa in WT channels (human Nav1.5 (WT) [1]; 10 µmol/L): significantly inhibited
- Effect on H2O2-induced late-INa (human Nav1.5 (WT) [1]; 1 and 10 µmol/L): significantly inhibited
- Half-activation voltage (V50) after drug (human Nav1.5 (WT) [1]; WT currents, 10 µmol/L): –42.4 mV
- Effect on peak-INa (human Nav1.5 (WT) [1]): little effect
- Reduction of the occurrence of veratridine-induced spontaneous transients (mouse cardiomyocytes; 1 µmol/L, 20 nmol/L veratridine, 1 Hz field stimulation): 46%
- Effect on calcium transients in vehicle control-treated cardiomyocytes (mouse cardiomyocytes; no veratridine, data not shown): no observable effect
- Reperfusion functional recovery (LVDP) (isolated mouse hearts; [5]): improved
- Inhibition of reverse-mode NCX1.1 (human NCX1.1): no significant inhibition
- IC50 (human Nav1.5 (WT) [2]): 790 nM
- Effect on late-INa [4]: did not significantly alter
- Effect on peak current [4]: did not significantly alter
- Effect on total sodium current [4]: did not significantly alter

Molecule: CCN(CC)CC(=O)Nc1c(C)cccc1C [lidocaine]
- Effect on incidence of veratridine-induced spontaneous transients (mouse cardiomyocytes): significantly reduced

Molecule: COc1ccccc1OCC(O)CN1CCN(CC(=O)Nc2c(C)cccc2C)CC1 (centres unmarked) [ranolazine]
- Effect on incidence of veratridine-induced spontaneous transients (mouse cardiomyocytes; 10 µmol/L, 20 nmol/L veratridine): significantly reduced

Molecule: NC1=N[C@H](O)[C@H]2[C@H]3O[C@]4(O)O[C@@H]([C@@H](O)[C@@]2(N1)[C@@H]4O)[C@]3(O)CO [tetrodotoxin]
- Activation of TXNIP after ischemia-reperfusion (NLRP3 inflammasome): complete prevention
- Activation of the NLRP3 inflammasome after ischemia-reperfusion (NLRP3 inflammasome): complete prevention
- Sensitivity of H2O2-induced persistent inward current (late-INa) (human Nav1.5 (WT) [1]): sensitive
- Reperfusion functional recovery (LVDP) (isolated mouse hearts): improved

Molecule: COc1ccc(C(=O)O[C@H]2CC[C@@]3(C)[C@@H]4CC[C@H]5[C@]6(O)C[C@H](O)[C@@]7(O)[C@@H](CN8C[C@@H](C)CC[C@H]8[C@@]7(C)O)[C@]6(O)C[C@@]53O[C@]24O)cc1OC [veratridine]
- Induction of late-INa activity and spontaneous calcium transients (mouse cardiomyocytes; 20 nmol/L, pilot experiments): induces late-INa activity

Molecule: canagliflozin
- Effect on peak-INa (human Nav1.5 (WT) [1]): little inhibitory effect
- IC50 (human Nav1.5 (WT) [1]; read-out: IC50 for inhibition of H2O2-induced late-INa, recombinant human Nav1.5 in HEK293T cells, late-INa induced by 30 µmol/L H2O2): 1260 nM
